What was measured:
Experiment in all cases: relative viability (nuclei count vs DMSO), 5 days (fraction); higher = more cells survive
Linsitinib + Navitoclax = compound: C[C@]1(O)C[C@@H](c2nc(-c3ccc4ccc(-c5ccccc5)nc4c3)c3c(N)nccn32)C1 [Linsitinib] + CC1(C)CCC(c2ccc(Cl)cc2)=C(CN2CCN(c3ccc(C(=O)NS(=O)(=O)c4ccc(N[C@H](CCN5CCOCC5)CSc5ccccc5)c(S(=O)(=O)C(F)(F)F)c4)cc3)CC2)C1 [Navitoclax] (partner 0.5 µM)
Summary of the method: (§1)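 Lung cancer cell lines in 1536-well plates were dosed by pin tool the day after seeding, either with one drug alone or with a fixed anchor-drug dose plus five library-drug doses (not always all listed) in √10 steps. After 5 days, cells were fixed and their nuclei stained in one step (final 0.05% Triton X-100, 1% formaldehyde, 1 ug/ml Hoechst), then counted on 4× images. Relative viability is the nuclei count in treated wells divided by that in vehicle wells. Values are medians of duplicate plates.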

Linsitinib + Decitabine = compound: C[C@]1(O)C[C@@H](c2nc(-c3ccc4ccc(-c5ccccc5)nc4c3)c3c(N)nccn32)C1 [Linsitinib] + Nc1ncn([C@H]2C[C@H](O)[C@@H](CO)O2)c(=O)n1 [Decitabine] (partner 2 µM)
Summary of the method: as §1

Ispinesib + Trametinib = compound: Cc1ccc(C(=O)N(CCCN)[C@@H](c2nc3cc(Cl)ccc3c(=O)n2Cc2ccccc2)C(C)C)cc1 [Ispinesib] + CC(=O)Nc1cccc(-n2c(=O)n(C3CC3)c(=O)c3c(Nc4ccc(I)cc4F)n(C)c(=O)c(C)c32)c1 [Trametinib] (partner 0.02 µM)
Summary of the method: as §1

Ispinesib + Decitabine = compound: Cc1ccc(C(=O)N(CCCN)[C@@H](c2nc3cc(Cl)ccc3c(=O)n2Cc2ccccc2)C(C)C)cc1 [Ispinesib] + Nc1ncn([C@H]2C[C@H](O)[C@@H](CO)O2)c(=O)n1 [Decitabine] (partner 2 µM)
Summary of the method: as §1

NCI-H596
relative viability (Linsitinib + Navitoclax; first compound 0.01 µM): 0.835 | relative viability (Linsitinib + Navitoclax; first compound 0.03162 µM): 1.01 | relative viability (Linsitinib + Navitoclax; first compound 0.1 µM): 0.938 | relative viability (Linsitinib + Navitoclax; first compound 0.3162 µM): 0.805 | relative viability (Linsitinib + Navitoclax; first compound 1 µM): 0.931 | relative viability (Linsitinib + Decitabine; first compound 0.01 µM): 1.03 | relative viability (Linsitinib + Decitabine; first compound 0.03162 µM): 1.06 | relative viability (Linsitinib + Decitabine; first compound 0.1 µM): 1.11 | relative viability (Linsitinib + Decitabine; first compound 0.3162 µM): 0.976 | relative viability (Linsitinib + Decitabine; first compound 1 µM): 1.01 | relative viability (Ispinesib + Trametinib; first compound 0.001 µM): 0.745 | relative viability (Ispinesib + Trametinib; first compound 0.003162 µM): 0.876 | relative viability (Ispinesib + Trametinib; first compound 0.01 µM): 0.799 | relative viability (Ispinesib + Trametinib; first compound 0.03162 µM): 0.83 | relative viability (Ispinesib + Trametinib; first compound 0.1 µM): 0.706 | relative viability (Ispinesib + Decitabine; first compound 0.001 µM): 1.02 | relative viability (Ispinesib + Decitabine; first compound 0.003162 µM): 1.89 | relative viability (Ispinesib + Decitabine; first compound 0.01 µM): 1.15 | relative viability (Ispinesib + Decitabine; first compound 0.03162 µM): 1.02 | relative viability (Ispinesib + Decitabine; first compound 0.1 µM): 0.885

NCI-H460
relative viability (Linsitinib + Navitoclax; first compound 0.01 µM): 1.08 | relative viability (Linsitinib + Navitoclax; first compound 0.03162 µM): 0.97 | relative viability (Linsitinib + Navitoclax; first compound 0.1 µM): 1.25 | relative viability (Linsitinib + Navitoclax; first compound 0.3162 µM): 1.01 | relative viability (Linsitinib + Navitoclax; first compound 1 µM): 1.12 | relative viability (Linsitinib + Decitabine; first compound 0.01 µM): 0.497 | relative viability (Linsitinib + Decitabine; first compound 0.03162 µM): 0.483 | relative viability (Linsitinib + Decitabine; first compound 0.1 µM): 0.511 | relative viability (Linsitinib + Decitabine; first compound 1 µM): 0.424 | relative viability (Ispinesib + Trametinib; first compound 0.001 µM): 0.225 | relative viability (Ispinesib + Trametinib; first compound 0.003162 µM): 0.207 | relative viability (Ispinesib + Trametinib; first compound 0.01 µM): 0.218 | relative viability (Ispinesib + Trametinib; first compound 0.03162 µM): 0.0463 | relative viability (Ispinesib + Trametinib; first compound 0.1 µM): 0.0454 | relative viability (Ispinesib + Decitabine; first compound 0.001 µM): 0.533 | relative viability (Ispinesib + Decitabine; first compound 0.003162 µM): 0.516 | relative viability (Ispinesib + Decitabine; first compound 0.01 µM): 0.699 | relative viability (Ispinesib + Decitabine; first compound 0.03162 µM): 0.146 | relative viability (Ispinesib + Decitabine; first compound 0.1 µM): 0.0478

NCI-H647
relative viability (Linsitinib + Navitoclax; first compound 0.01 µM): 1.24 | relative viability (Linsitinib + Navitoclax; first compound 0.03162 µM): 1.12 | relative viability (Linsitinib + Navitoclax; first compound 0.1 µM): 1.18 | relative viability (Linsitinib + Navitoclax; first compound 1 µM): 1.05 | relative viability (Linsitinib + Decitabine; first compound 0.01 µM): 0.39 | relative viability (Linsitinib + Decitabine; first compound 0.03162 µM): 0.524 | relative viability (Linsitinib + Decitabine; first compound 0.1 µM): 0.395 | relative viability (Linsitinib + Decitabine; first compound 0.3162 µM): 0.405 | relative viability (Linsitinib + Decitabine; first compound 1 µM): 0.43 | relative viability (Ispinesib + Trametinib; first compound 0.001 µM): 0.536 | relative viability (Ispinesib + Trametinib; first compound 0.003162 µM): 0.508 | relative viability (Ispinesib + Trametinib; first compound 0.01 µM): 0.434 | relative viability (Ispinesib + Trametinib; first compound 0.03162 µM): 0.209 | relative viability (Ispinesib + Trametinib; first compound 0.1 µM): 0.133 | relative viability (Ispinesib + Decitabine; first compound 0.001 µM): 0.49 | relative viability (Ispinesib + Decitabine; first compound 0.003162 µM): 0.409 | relative viability (Ispinesib + Decitabine; first compound 0.01 µM): 0.326 | relative viability (Ispinesib + Decitabine; first compound 0.03162 µM): 0.179 | relative viability (Ispinesib + Decitabine; first compound 0.1 µM): 0.157

NCI-H838
relative viability (Linsitinib + Navitoclax; first compound 0.01 µM): 1.14 | relative viability (Linsitinib + Navitoclax; first compound 0.03162 µM): 1.12 | relative viability (Linsitinib + Navitoclax; first compound 0.1 µM): 1.21 | relative viability (Linsitinib + Navitoclax; first compound 0.3162 µM): 0.875 | relative viability (Linsitinib + Navitoclax; first compound 1 µM): 0.986 | relative viability (Linsitinib + Decitabine; first compound 0.01 µM): 0.462 | relative viability (Linsitinib + Decitabine; first compound 0.03162 µM): 0.581 | relative viability (Linsitinib + Decitabine; first compound 0.1 µM): 0.452 | relative viability (Linsitinib + Decitabine; first compound 0.3162 µM): 0.284 | relative viability (Linsitinib + Decitabine; first compound 1 µM): 0.405 | relative viability (Ispinesib + Trametinib; first compound 0.001 µM): 0.627 | relative viability (Ispinesib + Trametinib; first compound 0.003162 µM): 0.529 | relative viability (Ispinesib + Trametinib; first compound 0.01 µM): 0.542 | relative viability (Ispinesib + Trametinib; first compound 0.03162 µM): 0.359 | relative viability (Ispinesib + Trametinib; first compound 0.1 µM): 0.164 | relative viability (Ispinesib + Decitabine; first compound 0.001 µM): 0.457 | relative viability (Ispinesib + Decitabine; first compound 0.003162 µM): 0.45 | relative viability (Ispinesib + Decitabine; first compound 0.01 µM): 0.46 | relative viability (Ispinesib + Decitabine; first compound 0.03162 µM): 0.236 | relative viability (Ispinesib + Decitabine; first compound 0.1 µM): 0.181

PC-14
relative viability (Linsitinib + Navitoclax; first compound 0.01 µM): 0.968 | relative viability (Linsitinib + Navitoclax; first compound 0.03162 µM): 1.01 | relative viability (Linsitinib + Navitoclax; first compound 0.1 µM): 1.03 | relative viability (Linsitinib + Navitoclax; first compound 0.3162 µM): 0.984 | relative viability (Linsitinib + Navitoclax; first compound 1 µM): 0.944 | relative viability (Linsitinib + Decitabine; first compound 0.01 µM): 0.2 | relative viability (Linsitinib + Decitabine; first compound 0.03162 µM): 0.196 | relative viability (Linsitinib + Decitabine; first compound 0.1 µM): 0.22 | relative viability (Linsitinib + Decitabine; first compound 0.3162 µM): 0.158 | relative viability (Linsitinib + Decitabine; first compound 1 µM): 0.172 | relative viability (Ispinesib + Trametinib; first compound 0.001 µM): 0.788 | relative viability (Ispinesib + Trametinib; first compound 0.003162 µM): 0.707 | relative viability (Ispinesib + Trametinib; first compound 0.01 µM): 0.282 | relative viability (Ispinesib + Trametinib; first compound 0.03162 µM): 0.0652 | relative viability (Ispinesib + Trametinib; first compound 0.1 µM): 0.101 | relative viability (Ispinesib + Decitabine; first compound 0.001 µM): 0.21 | relative viability (Ispinesib + Decitabine; first compound 0.003162 µM): 0.18 | relative viability (Ispinesib + Decitabine; first compound 0.01 µM): 0.0598 | relative viability (Ispinesib + Decitabine; first compound 0.03162 µM): 0.0507 | relative viability (Ispinesib + Decitabine; first compound 0.1 µM): 0.0665

NCI-H1915
relative viability (Linsitinib + Navitoclax; first compound 0.01 µM): 0.813 | relative viability (Linsitinib + Navitoclax; first compound 0.03162 µM): 0.811 | relative viability (Linsitinib + Navitoclax; first compound 0.1 µM): 0.81 | relative viability (Linsitinib + Navitoclax; first compound 0.3162 µM): 0.681 | relative viability (Linsitinib + Navitoclax; first compound 1 µM): 0.781 | relative viability (Linsitinib + Decitabine; first compound 0.01 µM): 0.272 | relative viability (Linsitinib + Decitabine; first compound 0.03162 µM): 0.312 | relative viability (Linsitinib + Decitabine; first compound 0.1 µM): 0.266 | relative viability (Linsitinib + Decitabine; first compound 0.3162 µM): 0.247 | relative viability (Linsitinib + Decitabine; first compound 1 µM): 0.263 | relative viability (Ispinesib + Trametinib; first compound 0.001 µM): 0.29 | relative viability (Ispinesib + Trametinib; first compound 0.003162 µM): 0.323 | relative viability (Ispinesib + Trametinib; first compound 0.01 µM): 0.314 | relative viability (Ispinesib + Trametinib; first compound 0.03162 µM): 0.279 | relative viability (Ispinesib + Trametinib; first compound 0.1 µM): 0.22 | relative viability (Ispinesib + Decitabine; first compound 0.001 µM): 0.233 | relative viability (Ispinesib + Decitabine; first compound 0.003162 µM): 0.281 | relative viability (Ispinesib + Decitabine; first compound 0.01 µM): 0.268 | relative viability (Ispinesib + Decitabine; first compound 0.03162 µM): 0.291 | relative viability (Ispinesib + Decitabine; first compound 0.1 µM): 0.229

201T
relative viability (Linsitinib + Navitoclax; first compound 0.01 µM): 1.22 | relative viability (Linsitinib + Navitoclax; first compound 0.03162 µM): 1.26 | relative viability (Linsitinib + Navitoclax; first compound 0.1 µM): 1.23 | relative viability (Linsitinib + Navitoclax; first compound 0.3162 µM): 1.29 | relative viability (Linsitinib + Navitoclax; first compound 1 µM): 1.24 | relative viability (Linsitinib + Decitabine; first compound 0.01 µM): 0.868 | relative viability (Linsitinib + Decitabine; first compound 0.03162 µM): 0.881 | relative viability (Linsitinib + Decitabine; first compound 0.1 µM): 0.904 | relative viability (Linsitinib + Decitabine; first compound 0.3162 µM): 0.832 | relative viability (Linsitinib + Decitabine; first compound 1 µM): 0.889 | relative viability (Ispinesib + Trametinib; first compound 0.001 µM): 0.743 | relative viability (Ispinesib + Trametinib; first compound 0.003162 µM): 0.75 | relative viability (Ispinesib + Trametinib; first compound 0.01 µM): 0.729 | relative viability (Ispinesib + Trametinib; first compound 0.03162 µM): 0.692 | relative viability (Ispinesib + Trametinib; first compound 0.1 µM): 0.678 | relative viability (Ispinesib + Decitabine; first compound 0.001 µM): 0.849 | relative viability (Ispinesib + Decitabine; first compound 0.003162 µM): 0.859 | relative viability (Ispinesib + Decitabine; first compound 0.01 µM): 0.897 | relative viability (Ispinesib + Decitabine; first compound 0.03162 µM): 0.889 | relative viability (Ispinesib + Decitabine; first compound 0.1 µM): 0.839

NCI-H1437
relative viability (Linsitinib + Navitoclax; first compound 0.01 µM): 1.03 | relative viability (Linsitinib + Navitoclax; first compound 0.03162 µM): 0.994 | relative viability (Linsitinib + Navitoclax; first compound 0.1 µM): 1.1 | relative viability (Linsitinib + Navitoclax; first compound 0.3162 µM): 1.01 | relative viability (Linsitinib + Navitoclax; first compound 1 µM): 1.02 | relative viability (Linsitinib + Decitabine; first compound 0.01 µM): 0.541 | relative viability (Linsitinib + Decitabine; first compound 0.03162 µM): 0.551 | relative viability (Linsitinib + Decitabine; first compound 0.1 µM): 0.555 | relative viability (Linsitinib + Decitabine; first compound 0.3162 µM): 0.4 | relative viability (Linsitinib + Decitabine; first compound 1 µM): 0.599 | relative viability (Ispinesib + Trametinib; first compound 0.001 µM): 0.557 | relative viability (Ispinesib + Trametinib; first compound 0.003162 µM): 0.541 | relative viability (Ispinesib + Trametinib; first compound 0.01 µM): 0.688 | relative viability (Ispinesib + Trametinib; first compound 0.03162 µM): 0.614 | relative viability (Ispinesib + Trametinib; first compound 0.1 µM): 0.144 | relative viability (Ispinesib + Decitabine; first compound 0.001 µM): 0.552 | relative viability (Ispinesib + Decitabine; first compound 0.003162 µM): 0.605 | relative viability (Ispinesib + Decitabine; first compound 0.01 µM): 0.677 | relative viability (Ispinesib + Decitabine; first compound 0.03162 µM): 0.652 | relative viability (Ispinesib + Decitabine; first compound 0.1 µM): 0.228
